The results in this text go back to ChEMBL document CHEMBL1201862, “PubChem BioAssay data set” (2004).

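Where inhibition never reached the appropriate level, the endpoint shown equals the highest concentration tested. Otherwise, values were interpolated linearly from a five-concentration, 48-hour dose response in 96-well plates. GI50 marks 50% less growth.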 The source made the active and inactive calls. No stated cut-off is given here; in the data, active = GI50 up to about 1.1 µM and inactive = higher.

Assay in all cases: inhibition of tumour cell growth, NCI panel, 48 h
Experiment [1] relates to MCF7.
Experiment [2] has as its system OVCAR-5.
The test system of experiment [3] is 786-0.
Experiment [4] deals with HCT-15.
The test system of experiment [5] is M14.
Experiment [6] deals with OVCAR-3.
Experiment [7] concerns U-251.
The subject of experiment [8] is T47D.
Experiment [9] has as its system Malme-3M.
Experiment [10] relates to ACHN.
Experiment [11] concerns UACC-62.
Experiment [12] deals with DU-145.
Experiment [13] deals with A549.
Experiment [14] deals with SF-539.
Experiment [15] relates to K562.
In experiment [16] the test system is SK-OV-3.
In experiment [17] the test system is NCI/ADR-RES.
The subject of experiment [18] is OVCAR-8.
Experiment [19] relates to NCI-H23.
Experiment [20] concerns SK-MEL-28.

As for `O=c1[nH]nc(Cc2ccc(Cl)cc2)n1/N=C\CC/C=N\n1c(Cc2ccc(Cl)cc2)n[nH]c1=O`, the GI50 is 21.6 µM (inactive) in [1]; > 100 µM (inactive) in [2]; 18.5 µM (inactive) in experiment [3]; 35.2 µM in [4]; 32.8 µM (inactive) in experiment [5]; > 100 µM (inactive) in [6]. Moreover, the GI50 in experiment [7] is 16.4 µM (inactive); in experiment [8], 20 µM (inactive); in experiment [9], 24.3 µM (inactive); in experiment [10] it was 56 µM (inactive); in [11] it was 10.9 µM (inactive); in [12], > 93.1 µM (inactive). Further, the GI50 in experiment [13] is > 100 µM (inactive); in experiment [14], 8.49 µM (inactive); in experiment [15], > 88.7 µM (inactive); in [16] it was 31.5 µM (inactive); in [17], 22.2 µM (inactive); in experiment [18], 14 µM (inactive). The GI50 in experiment [19] is 32.3 µM (inactive); in experiment [20] it was 23.6 µM (inactive).
As for `COc1c(O)c(O)c2c(c1O)C(=O)c1cc(C)cc(O)c1C2=O`, the GI50 is 44.8 µM (inactive) in experiment [1]; 43 µM (inactive) in experiment [2]; 36.7 µM (inactive) in experiment [3]; 14.1 µM in experiment [4]; 22.8 µM (inactive) in experiment [5]; 26.4 µM (inactive) in experiment [6]. Further, the GI50 in experiment [7] is 50.4 µM (inactive); in experiment [8] it was 24.8 µM (inactive); in [9], 8.91 µM (inactive); in [10], 40.3 µM (inactive); in experiment [11], 15.3 µM (inactive); in experiment [12] it was 77.1 µM (inactive). Further, the GI50 was 45.9 µM (inactive) in [13]; > 66.5 µM (inactive) in experiment [14]; 37.4 µM (inactive) in [15]; 36.8 µM (inactive) in experiment [16]; 16.7 µM (inactive) in experiment [17]; 20.1 µM (inactive) in experiment [18]. For the same compound, the results for the GI50 in experiment [19] and in experiment [20] were 29.2 µM (inactive) and 98.6 µM (inactive), respectively.
Take `Nc1nc(F)nc2c1ncn2C1OC(CO)C(O)C1O` (stereo not given): the GI50 in experiment [1] was 57.7 µM (inactive); in experiment [2], > 100 µM (inactive); in experiment [3], 38.1 µM (inactive); in [4] it was greater than 75 µM; in experiment [5], 8.53 µM (inactive); in [6], > 100 µM (inactive). Besides, the GI50 in experiment [7] was > 81.5 µM (inactive); in experiment [8] it was > 70 µM (inactive); in experiment [9], 32.5 µM (inactive); in experiment [10], 34 µM (inactive); in experiment [11], 58.6 µM (inactive); in [12], 15.7 µM (inactive). The GI50 in experiment [13] was 43 µM (inactive); in experiment [14] it was > 100 µM (inactive); in [15], > 76.6 µM (inactive); in [16] it was 23.2 µM (inactive); in experiment [17], 3.78 µM (inactive); in experiment [18], 4.61 µM (inactive). Moreover, the GI50 is 13.3 µM (inactive) in experiment [19] and > 77.3 µM (inactive) in experiment [20].
On to `Cc1ccc(C(=O)N(Cc2ccccc2)Cc2ccccc2)cc1/N=N/N(C)C`, for which the GI50 was 24.2 µM (inactive) in experiment [1]; 39.2 µM (inactive) in [2]; 22.2 µM (inactive) in experiment [3]; 17.3 µM in [4]; 18.1 µM (inactive) in experiment [5]; 4.49 µM (inactive) in [6]. Also, the GI50 in [7] is 37.8 µM (inactive); in experiment [8], 14.8 µM (inactive); in [9], 18.2 µM (inactive); in experiment [10], 7.01 µM (inactive); in experiment [11], 13.1 µM (inactive); in experiment [12], 36.6 µM (inactive). Also, the GI50 in experiment [13] was 17.5 µM (inactive); in experiment [14], 18.5 µM (inactive); in experiment [15] it was 27.2 µM (inactive); in experiment [16], 29.5 µM (inactive); in experiment [17] it was 22.5 µM (inactive); in experiment [18] it was 29.9 µM (inactive). In addition, the GI50 in experiment [19] is 11.2 µM (inactive); in experiment [20] it was 19.3 µM (inactive).
On to `CN(C)CCNc1ccc2nnn3c4ccc(Cl)cc4c(=O)c1c23`, for which the GI50 in experiment [1] is 5.01 µM (inactive); in [2] it was 4.14 µM (inactive); in experiment [3], 2.42 µM (inactive); in experiment [4], 2.16 µM; in experiment [5], 4.94 µM (inactive); in experiment [6] it was 5.6 µM (inactive). The GI50 is 1.33 µM (inactive) in experiment [7]; 14.4 µM (inactive) in experiment [8]; 4.89 µM (inactive) in experiment [9]; 1.55 µM (inactive) in [10]; 4.89 µM (inactive) in experiment [11]; 5.22 µM (inactive) in experiment [12]. The GI50 is 2.72 µM (inactive) in [13]; 4.78 µM (inactive) in experiment [14]; 2.14 µM (inactive) in experiment [15]; 9.89 µM (inactive) in experiment [16]; 1.04 µM (active) in experiment [17]; 1.7 µM (inactive) in experiment [18]. Moreover, the GI50 was 5.09 µM (inactive) in experiment [19] and 5.74 µM (inactive) in experiment [20].
Consider `Nc1nc(N)c(CCCCc2ccccc2)c(N)n1`, for which the GI50 in experiment [1] was > 100 µM (inactive); in [2], > 100 µM (inactive); in [3], > 100 µM (inactive); in experiment [4], greater than 100 µM; in experiment [5], > 100 µM (inactive); in experiment [6] it was > 100 µM (inactive). For the same compound, the GI50 in experiment [7], in experiment [8], in [9], in experiment [10], in experiment [11] and in experiment [12] was > 100 µM (inactive) in each case. Moreover, the GI50 in [13], in experiment [14], in experiment [15], in [16], in experiment [17] and in experiment [18] was > 100 µM (inactive) each time. Further, the GI50 in experiment [19] and in [20] was > 100 µM (inactive) each time.
`CC(NC(=O)/C(C#N)=C/c1ccc2[nH]ccc2c1)c1ccccc1` (stereo not given): the GI50 in experiment [1] was 20.9 µM (inactive); in [2] it was 17.5 µM (inactive); in experiment [3], 16.7 µM (inactive); in experiment [4], 12.5 µM; in [5] it was 20.6 µM (inactive); in [6], 24.9 µM (inactive). The GI50 in experiment [7] is 15.9 µM (inactive); in experiment [8], 20.3 µM (inactive); in experiment [9], 28.2 µM (inactive); in [10] it was 21.6 µM (inactive); in experiment [11] it was 15.3 µM (inactive); in experiment [12], 16.7 µM (inactive). Besides, the GI50 was 24 µM (inactive) in [13]; 19.8 µM (inactive) in experiment [14]; 23.8 µM (inactive) in experiment [15]; 21.9 µM (inactive) in [16]; 28.8 µM (inactive) in experiment [17]; 21.3 µM (inactive) in [18]. Further, the values for the GI50 in [19] and in experiment [20] were 19.4 µM (inactive) and 19.8 µM (inactive), respectively.
As to `N#C/N=C(/NCc1ccccc1)N(Cc1ccccc1)Cc1ccccc1`, the GI50 was 36.1 µM (inactive) in experiment [1]; 29.9 µM (inactive) in experiment [2]; 23.2 µM (inactive) in experiment [3]; 20.7 µM in experiment [4]; 23.4 µM (inactive) in [5]; 22.6 µM (inactive) in [6]. In addition, the GI50 in [7] is 24.7 µM (inactive); in experiment [8] it was 35 µM (inactive); in experiment [9], > 10 µM (inactive); in [10], > 10 µM (inactive); in experiment [11] it was 8.13 µM (inactive); in [12] it was 63 µM (inactive). Moreover, the GI50 in experiment [13] is 16.4 µM (inactive); in experiment [14] it was 23.7 µM (inactive); in experiment [15], 26.3 µM (inactive); in experiment [16], > 10 µM (inactive); in experiment [17], 30.3 µM (inactive); in experiment [18], 20.2 µM (inactive). Moreover, the GI50 was 19.8 µM (inactive) in [19] and 27.5 µM (inactive) in experiment [20].
On to `Brc1ccc2nc(-c3cccs3)nc(N3CCN(c4ccccc4)CC3)c2c1`, for which the GI50 in [1] is > 100 µM (inactive); in [2], > 100 µM (inactive); in experiment [3], > 100 µM (inactive); in experiment [4], greater than 100 µM; in experiment [5], > 100 µM (inactive); in experiment [6], > 100 µM (inactive). For the same compound, the GI50 in [7], in experiment [8], in experiment [9], in experiment [10], in [11] and in experiment [12] was > 100 µM (inactive) in each case. Also, the GI50 in experiment [13], in experiment [14], in experiment [15], in [16], in experiment [17] and in experiment [18] was > 100 µM (inactive) in each case. Besides, the GI50 in experiment [19] and in [20] was > 100 µM (inactive) each time.
Consider `CCN(CC)C(=S)SC(C(=O)Nc1nnc(-c2ccc(Cl)cc2)o1)c1ccccc1` (stereo not given), for which the GI50 is 7.26 µM (inactive) in experiment [1]; 6.41 µM (inactive) in experiment [2]; 10 µM (inactive) in experiment [3]; 3.81 µM in experiment [4]; 10.8 µM (inactive) in experiment [5]; 3.21 µM (inactive) in experiment [6]. For the same compound, the GI50 in experiment [7] is 10 µM (inactive); in experiment [8], 6.53 µM (inactive); in experiment [9], 13.8 µM (inactive); in experiment [10] it was 6.64 µM (inactive); in experiment [11] it was 7.35 µM (inactive); in experiment [12], 20.1 µM (inactive). The GI50 is 17.9 µM (inactive) in experiment [13]; 14.8 µM (inactive) in experiment [14]; 12.8 µM (inactive) in experiment [15]; 13 µM (inactive) in [16]; 5.68 µM (inactive) in experiment [17]; 5.79 µM (inactive) in experiment [18]. Also, the GI50 in experiment [19] is 22.1 µM (inactive); in experiment [20], 14 µM (inactive).
